Experimental data as given in article PMC12349723, “Computationally accelerated identification of P-glycoprotein inhibitors” (PLOS One, 2025).
Entries after “also recorded” stand apart in the source; their conditions may differ.

Tests used:
[1] = target: T1, P-gp (Homo sapiens, UniProt P08183); assay: Daunorubicin accumulation (fluorescence) assay in DU145-TXR cells; format: cell-based; conditions: for Significance (DAU + compound vs DAU alone): Student's T test of the mean; for Effect on DAU fluorescence / intracellular DAU retention: DU145-TXR, 10 µM compound + 10 µM DAU, 2 h
T1 construct: The MDR, P-gp overexpressing DU145-TXR cells were maintained under positive selection pressure; endogenous in cells; host or cells: DU145-TXR (paclitaxel-resistant sub-line of DU145 human prostate cancer cells)
T1 sequence (P08183 whole entry): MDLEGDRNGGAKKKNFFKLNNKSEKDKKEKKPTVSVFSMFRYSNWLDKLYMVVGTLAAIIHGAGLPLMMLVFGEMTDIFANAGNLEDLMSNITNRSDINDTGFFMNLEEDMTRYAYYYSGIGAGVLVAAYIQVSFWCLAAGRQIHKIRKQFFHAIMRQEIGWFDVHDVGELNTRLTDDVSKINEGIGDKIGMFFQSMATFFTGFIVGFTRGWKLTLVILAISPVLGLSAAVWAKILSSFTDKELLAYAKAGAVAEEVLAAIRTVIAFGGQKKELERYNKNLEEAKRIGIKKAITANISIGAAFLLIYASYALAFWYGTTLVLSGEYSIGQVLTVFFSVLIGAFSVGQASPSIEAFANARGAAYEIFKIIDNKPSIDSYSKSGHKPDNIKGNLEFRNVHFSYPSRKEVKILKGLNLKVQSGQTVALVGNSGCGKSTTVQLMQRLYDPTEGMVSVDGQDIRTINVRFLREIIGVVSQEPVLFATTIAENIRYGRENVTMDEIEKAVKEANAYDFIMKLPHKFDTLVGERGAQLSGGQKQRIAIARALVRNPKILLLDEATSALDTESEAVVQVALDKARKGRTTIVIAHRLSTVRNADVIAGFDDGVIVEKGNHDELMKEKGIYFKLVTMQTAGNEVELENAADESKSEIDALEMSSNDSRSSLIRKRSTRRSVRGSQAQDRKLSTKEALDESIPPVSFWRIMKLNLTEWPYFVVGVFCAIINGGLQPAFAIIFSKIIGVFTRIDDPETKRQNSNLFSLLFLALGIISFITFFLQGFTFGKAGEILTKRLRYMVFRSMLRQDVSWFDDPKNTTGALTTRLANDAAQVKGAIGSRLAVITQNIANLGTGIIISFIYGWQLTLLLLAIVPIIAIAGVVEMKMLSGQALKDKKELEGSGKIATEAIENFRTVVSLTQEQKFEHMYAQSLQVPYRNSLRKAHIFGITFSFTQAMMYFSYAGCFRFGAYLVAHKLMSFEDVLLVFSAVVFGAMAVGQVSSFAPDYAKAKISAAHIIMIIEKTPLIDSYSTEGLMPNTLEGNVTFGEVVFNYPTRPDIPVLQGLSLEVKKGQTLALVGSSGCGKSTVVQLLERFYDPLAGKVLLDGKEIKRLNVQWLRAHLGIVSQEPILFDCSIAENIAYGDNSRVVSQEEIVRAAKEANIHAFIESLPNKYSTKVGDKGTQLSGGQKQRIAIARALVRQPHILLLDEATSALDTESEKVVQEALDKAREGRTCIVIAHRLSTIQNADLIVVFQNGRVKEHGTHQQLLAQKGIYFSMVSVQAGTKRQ
Description: These assays are based upon those reported in [9]. DU145-TXR cells were seeded in 96 well plates in complete RPMI medium at 15,000 cells per well. Cells were allowed to grow for 48 hours in a humidified incubator at 37 °C and 5% CO2. After 48 hours, media was replaced with fresh complete RPMI medium. Cells were treated with 10 µM of experimental compound with or without 10 µM daunorubicin (DAU). After a 2-hour incubation at 37 °C and 5% CO2 in a humidified incubator, media was removed with a vacuum aspirator, and cells were washed twice with ice-cold phosphate buffered saline (PBS) solution. Cells were lysed in PBS containing 0.5% SDS and 0.5% Triton X-100 and shaken on an Orbital Shaker for 10 min at 500 rpm. […] Data are the mean ± one standard deviation from three independent experiments, 3 samples per experiment. Statistical significance was determined with a Student’s T test in GraphPad prism.
Δ DAU Fluorescence= Fluorescence of (Compound+DAU) treated cells/Fluorescence of DAU treated cells
These assays used the P-gp highly overexpressing DU145-TXR cell line. In this assay, the intrinsic fluorescence of DAU was used to quantify its relative concentration in the cell. An increase in fluorescence correlates with an increase in the intracellular accumulation of DAU. […] Cells were treated with 10 µM of experimental compound with or without 10 µM DAU. After a 2-hour incubation, cells were washed and lysed, and the total fluorescence of DAU in each well was quantified.
Fig 5 Change in fluorescence of DAU in the presence of experimental compounds. Fold change in fluorescence of the P-gp substrate Daunorubicin (DAU) in the presence or absence of experimental compounds or known P-gp modulators. Cells were treated with 10 µM compound in the presence or absence of 10 µM DAU. After washing and lysing the cells, the intracellular DAU fluorescence was measured and expressed as a fold change relative to the fluorescence of DU145-TXR cells treated with DAU alone. […] Three samples per trial, three independent trials. Significance was determined using a Student’s T test of the mean by comparing fluorescence of DAU and compound to that of DAU alone; P > 0.05 = N.S., P < 0.05 = *, P < 0.01 = **, P < 0.001 = ***, P < 0.0001 = ****. Data also shown in S4 Fig.

[2] = tested on: P-gp; design: method as in earlier work; conditions: ref [66-68]; cited from earlier work

In the case of Cn1cnnc1SCc1c(C(=O)O)nnn1-c1nonc1N [Compound 59, Cn1cnnc1SCc1c(nnn1-c1nonc1N)C(O)=O], the “Significance (DAU + compound vs DAU alone)” value [1] is reported as “N.S. (P > 0.05 = N.S.)”.
With O=C(c1nc(-c2ccc3cc[nH]c3c2)no1)N1CCN(c2nsc3ccccc23)CC1 [Compound 70, O=C(N1CCN(CC1)c1nsc2ccccc12)c1nc(no1)-c1ccc2cc[nH]c2c1] the “Significance (DAU + compound vs DAU alone)” value [1] was “* (P < 0.05 = *)”.
With Cc1onc(-c2ccccc2)c1-c1nnc(Cn2cnc3c(oc4ccccc43)c2=O)o1 [Compound 78, Cc1onc(c1-c1nnc(Cn2cnc3c4ccccc4oc3c2=O)o1)-c1ccccc1] the “Effect on DAU fluorescence / intracellular DAU retention” value [1] was “significant decrease in fluorescence; also recorded: did not cause an increase in intracellular DAU retention” and the “Significance (DAU + compound vs DAU alone)” value [1] was “* (P < 0.05 = *)”.
With O=S(=O)(CCSc1nnc(-c2ccccc2)c2ccccc12)c1ccccc1 [Compound 96, O=S(=O)(CCSc1nnc(-c2ccccc2)c2ccccc12)c1ccccc1] the “Significance (DAU + compound vs DAU alone)” value [1] was “**** (P < 0.0001 = ****)”.
For O=S(=O)(Cc1nc2ccccc2n1CC(O)c1ccc(Cl)cc1)c1ccccc1 (stereo not drawn) [Compound 97, OC(Cn1c(CS(=O)(=O)c2ccccc2)nc2ccccc12)c1ccc(Cl)cc1], the “Significance (DAU + compound vs DAU alone)” value [1] was “**** (P < 0.0001 = ****)”.
In the case of COc1cccc(N2CCN(c3ccc4nnc(CCC(=O)Nc5ccc(F)c(F)c5)n4n3)CC2)c1 [Compound 101, COc1cccc(c1)N1CCN(CC1)c1ccc2nnc(CCC(=O)Nc3ccc(F)c(F)c3)n2n1], the “Significance (DAU + compound vs DAU alone)” value [1] is reported as “**** (P < 0.0001 = ****)”.
In the case of Cc1ccc(-c2noc(-c3cn(Cc4ccc(NS(=O)(=O)c5ccccc5F)cc4)cn3)n2)cc1 [Compound 103, Cc1ccc(cc1)-c1noc(n1)-c1cn(Cc2ccc(NS(=O)(=O)c3ccccc3F)cc2)cn1], the “Significance (DAU + compound vs DAU alone)” value [1] is reported as “** (P < 0.01 = **)”.
With Cc1onc(-c2ccccc2)c1-c1nnc(Cn2cnc3ccccc3c2=O)o1 [Compound 111, Cc1onc(c1-c1nnc(Cn2cnc3ccccc3c2=O)o1)-c1ccccc1] the “Effect on DAU fluorescence / intracellular DAU retention” value [1] was “did not cause an increase in intracellular DAU retention” and the “Significance (DAU + compound vs DAU alone)” value [1] was “N.S. (P > 0.05 = N.S.)”.
For COc1cc2c(cc1OC)CN(CCc1ccc(NC(=O)c3cc(OC)c(OC)cc3NC(=O)c3cnc4ccccc4c3)cc1)CC2 [Tariquidar, reference compound], the “Significance (DAU + compound vs DAU alone)” value [1] is given as “**** (P < 0.0001 = ****)” and the “P-gp Substrate? (known transport substrate of P-gp)” value [2] is given as “Yes”.
